Results: US20090155180A1, “Methods and targets for identifying compounds for regulating rhinovirus infection” (priority 2007, published 2009)
pIC50: −log10 of the molar value. Like-named read-outs stand apart in the source and are kept apart here. One block for each compound: values may come before it.

Assays:
IP-10 (CXCL10) = test: IP-10 level in BEAS-2B cells infected with rhinovirus RV-16; format: cell-based, human; conditions: BEAS-2B cells infected with RV-16; test ingredient at 5 μM andrographolide content; control 61.99
Excerpt: An in vitro cell line of BEAS-2B cells can be infected with rhinovirus RV-16. The cells are then exposed to various compounds and extracts and subsequently levels of respiratory biomarker proteins can be assayed. Extracts and compounds are identified as regulating the respiratory biomarker proteins by monitoring the levels of the respiratory biomarker proteins after exposure of the infected cells to the extracts and compounds and comparing to the levels of the respiratory biomarker proteins in infected cells that have not been exposed to extracts and compounds.
In the example, the test ingredients are extracts of the herb andrographis paniculata, or its principal component, andrographolide. The test ingredients are tested at a level of 5 μM andrographolide content. The respiratory biomarker protein is IP-10 (CXCL10), a chemotactic agent.

NF-kB [1] = test: IL1b-induced NFkB nuclear translocation (Cellomics HitKit), BEAS-2B cells; format: cell-based; conditions: Homo sapiens, 0.5 h, IL1b 0.5 ng/ml for 30 min, then inhibitor 30 min
Excerpt: (§1) Because NF-κB must be in the nucleus to induce gene expression, its translocation is a definitive measure of its activation and marks an earlier event than reporter gene expression. This assay is an example of a 96-well medium throughput technology that can detect NF-κB translocation in several cell types.
(§2) Assays may be performed in standard, high-density microplates, where measurements of the rate and extent of NF-κB translocation are made in intact cells which provides more biological representative information. Cellomics' NF-κB activation kit (Cat. No. K01-001-1) may combine fluorescent reagents and protocols for optimized sample preparation and assays, and requires no cell lysis, purification or filtration steps. After fixation, the plates are stable for extended periods, when stored light-protected at 4° C.
(§3) One may create a fully automated screen to identify compounds that inhibit or activate NF-[…]B on a cell-by-cell basis. Prepared cells can be analyzed using standard fluorescence microscopy or using Cellomics' fully automated HCS Reader with the Cytoplasm to Nucleus Translocation Bioapplication, affording automated plate handling, focusing, image acquisition, analysis, quantification, and data storage.

NF-kB [2] = test: IL1b-induced NFkB nuclear translocation (Cellomics HitKit), A549 cells; format: cell-based; conditions: Homo sapiens, 0.5 h, IL1b 0.05 ng/ml for 30 min, then inhibitor 30 min
Excerpt: as §1, §2, §3

PGE2 formation = PGE2 formation in cells infected with rhinovirus (Cisbio HTRF assay); format: cell-based, human
Excerpt: There are several standard methods available for quantifying PGE2. The HTRF® PGE2 assay (developed by Cisbio International, Cat. No. 62P2APEB) is an example of a highly sensitive method for quantifying PGE2. Its principle is based on HTRF technology (Homogeneous Time-Resolved Fluorescence). It can be performed either in cell supernatants or directly in the presence of whole cells. This method is a competitive immunoassay in which native PGE2 produced by cells, and d2-labelled PGE2 compete for binding to MAb anti-PGE2 labeled with cryptate. The HTRF signal is inversely proportional to the concentration of PGE2 in the calibrator or in the sample. The incubation time and temperature following addition of the HTRF detection reagents has little effect on the assay results providing another level of assay flexibility.
Briefly, consecutive dilutions (within the 0-5000 pg/ml range) of samples may be prepared with the diluent. The reagents are dispensed (as outlined in the protocol) into a 384-well low volume plate (20 ul). Negative and positive controls are included. The plate is covered with a plate sealer and incubated for 5 hours at room temperature or overnight at 4° C. Free PGE2 from the sample competes with […] for binding to the Cryptate conjugated anti-PGE2 antibody. Then the plate is read on a compatible HTRF reader.
(§4) Test compounds may be assayed for inhibition of prostaglandin production via contacting them individually with cells that have been infected with rhinovirus. An assay for prostaglandin is available from Cisbio International, Bedford Mass. One cell line suitable for infection by rhinovirus is A549 (ATCC designation CCL-185), a human epithelial lung carcinoma available from ATCC, Manassas, Va. […] A COX assay is available from Cayman Chemical, Ann Arbor, Mich.

ovine COX-1 = target: T1, ovine COX-1 (Ovis aries, UniProt P05979); test: COX Inhibitor Screening Assay (Cayman), COX-1; format: biochemical
T1 construct: purchased Cayman Chemical Company 560101
Excerpt: An example of a COX Inhibitor Screening Assay (Cat. No. 560101 manufactured by Cayman Chemical Company, Ann Harbor, Mich.) directly measures PGF2 produced by SnCl2 reduction of COX-derived PGH2. The prostanoid product may be quantified via enzyme immunoassay (EIA) using a broadly specific antibody that binds to all the major prostaglandin compounds. Thus, the COX assay is more accurate and reliable than an assay based on peroxidase inhibition. The Cayman COX Inhibitor Screening Assay includes both ovine COX-1 and human recombinant COX-2 enzymes in order to screen isozyme-specific inhibitors. This assay may be an excellent tool which can be used for general inhibitor screening, or to eliminate false positive leads generated by less specific methods.
as §4

human recombinant COX-2 = target: T2, human recombinant COX-2 (Homo sapiens, UniProt P35354); test: biochemical; conditions: purified enzyme
T2 sequence (P35354 18-604): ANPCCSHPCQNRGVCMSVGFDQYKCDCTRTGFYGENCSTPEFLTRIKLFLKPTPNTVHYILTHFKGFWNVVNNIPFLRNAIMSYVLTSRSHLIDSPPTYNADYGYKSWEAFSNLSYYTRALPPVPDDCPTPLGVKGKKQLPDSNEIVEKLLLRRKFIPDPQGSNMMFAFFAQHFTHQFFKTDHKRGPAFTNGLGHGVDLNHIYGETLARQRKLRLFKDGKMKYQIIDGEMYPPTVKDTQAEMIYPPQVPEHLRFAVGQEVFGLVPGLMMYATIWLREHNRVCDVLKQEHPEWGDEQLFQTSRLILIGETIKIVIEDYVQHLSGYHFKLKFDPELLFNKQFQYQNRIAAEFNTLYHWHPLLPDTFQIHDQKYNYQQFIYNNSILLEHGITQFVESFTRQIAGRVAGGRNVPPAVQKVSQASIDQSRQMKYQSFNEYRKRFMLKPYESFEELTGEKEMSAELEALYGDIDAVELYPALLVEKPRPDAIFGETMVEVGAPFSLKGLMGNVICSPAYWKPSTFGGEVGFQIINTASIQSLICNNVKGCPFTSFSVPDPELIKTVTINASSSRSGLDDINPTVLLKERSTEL
Excerpt: An example of a COX Inhibitor Screening Assay (Cat. No. 560101 manufactured by Cayman Chemical Company, Ann Harbor, Mich.) directly measures PGF2 produced by SnCl2 reduction of COX-derived PGH2. The prostanoid product may be quantified via enzyme immunoassay (EIA) using a broadly specific antibody that binds to all the major prostaglandin compounds. […] The Cayman COX Inhibitor Screening Assay includes both ovine COX-1 and human recombinant COX-2 enzymes in order to screen isozyme-specific inhibitors.
An assay for prostaglandin is available from Cisbio International, Bedford Mass. One cell line suitable for infection by rhinovirus is A549 (ATCC designation CCL-185), a human epithelial lung carcinoma available from ATCC, Manassas, Va. […] A COX assay is available from Cayman Chemical, Ann Arbor, Mich.

T1 sequence (P05979 25-600): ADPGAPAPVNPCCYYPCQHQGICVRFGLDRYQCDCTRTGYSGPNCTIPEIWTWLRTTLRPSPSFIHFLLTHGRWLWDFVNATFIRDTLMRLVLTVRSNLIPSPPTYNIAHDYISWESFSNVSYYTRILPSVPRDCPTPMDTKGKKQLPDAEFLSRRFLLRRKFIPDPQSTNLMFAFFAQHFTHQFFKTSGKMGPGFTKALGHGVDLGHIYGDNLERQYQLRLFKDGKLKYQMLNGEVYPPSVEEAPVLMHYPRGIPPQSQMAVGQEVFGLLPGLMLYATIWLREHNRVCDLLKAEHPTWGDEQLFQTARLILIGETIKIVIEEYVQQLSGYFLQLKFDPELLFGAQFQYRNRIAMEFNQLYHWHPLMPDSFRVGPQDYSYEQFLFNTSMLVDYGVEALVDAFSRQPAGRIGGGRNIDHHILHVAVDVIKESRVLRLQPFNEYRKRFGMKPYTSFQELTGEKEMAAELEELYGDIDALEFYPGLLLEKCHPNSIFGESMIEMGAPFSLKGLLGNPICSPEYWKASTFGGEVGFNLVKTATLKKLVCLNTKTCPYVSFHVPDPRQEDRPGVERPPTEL

Compound: C=C1CC[C@@H]2[C@](C)(CO)[C@H](O)CC[C@@]2(C)[C@@H]1C/C=C1/C(=O)OC[C@H]1O [Andrographolide, andrographolide]
IP-10 (CXCL10) (IP-10 (CXCL10)): 18.07 pg/mL

pIC50 (NF-kB [1]): 5.23
pIC50 (NF-kB [2]): 4.43
Compound: COc1cc(/C=C/C(=O)CC(=O)/C=C/c2ccc(O)c(OC)c2)ccc1O [Curcumin, curcumin]

Compound: CCCc1ccc(O)c(OC)c1 [DIHYDROEUGENOL, dihydroeugenol]
pIC50 (PGE2 formation; cells infected with rhinovirus (A549 named as suitable line), read-out: IC50 PGE2 formation): 6.42
pIC50 (ovine COX-1; purified enzyme, read-out: IC50 COX-1 activity): 4.09
pIC50 (human recombinant COX-2): 4.12

Compound: CCOc1ccc2c(c1)C(C)=CC(C)(C)N2 [ETHOXYQUIN, ethoxyquin]
pIC50 (PGE2 formation; Homo sapiens, cells infected with rhinovirus (A549 named as suitable line), read-out: IC50 PGE2 formation): 7.52
pIC50 (ovine COX-1): 3.34
pIC50 (human recombinant COX-2): 4.27

Compound: C=CCc1ccc(O)c(OC)c1 [EUGENOL, eugenol]
pIC50 (PGE2 formation; Homo sapiens, A549, read-out: IC50 PGE2 formation): 6.38
pIC50 (ovine COX-1): 4.38
